In EP0118867A2, “Substituted 4,10-dihydro-10-oxothieno benzoxepins, a method of preparing the same and intermediate thereof and their use as medicaments” (HOECHST-ROUSSEL PHARMACEUTICALS INCORPORATED, priority 1983, dated 1984):
Read-outs that look alike come from different tables or passages of the source.

Assays:
[1] = system: 2-phenyl-1,4-benzoquinone-induced writhing; test: 2-phenyl-1,4-benzoquinone-induced writhing test (analgesia); format: in vivo, mice; settings: Mus musculus, po
Source text: Compounds of the present invention are also useful as analgesic agents due to their ability to alleviate pain in mammals. […] Exptl. Biol. Med., 95, 729 (1957)].

[2] = system: carrageenin induced rat paw edema; test: carrageenin induced rat paw edema anti-inflammatory assay; format: in vivo; settings: for inhibition at 20 mg/kg: read-out: Time Response at 20 mg/kg % Inhibition; for ED50: po; for inhibition at 25 mg/kg: read-out: Time Response at 25 mg/kg % Inhibition
Source text: The compounds of the present invention are useful as anti-inflammatory agents due to their ability to suppress inflammation in mammals. […] Exptl. Biol. Med., III 544 (1962), J. Pharmacol. Exp. 141 […]] .

[3] = analgesic data, read-out: ED50 (p.o.)
[4] = pretreatment 6 hrs, read-out: ED50

| SMILES | ED50 [1, 3] [mg/kg] | inhibition at 20 mg/kg ([2]; pretreatment time 2 hrs.) [%] | inhibition at 20 mg/kg ([2]; pretreatment time 6 hrs) [%] | inhibition at 20 mg/kg ([2]; pretreatment time 18 hrs) [%] | inhibition at 20 mg/kg ([2]; pretreatment time 24 hrs) [%] | further results |
| --- | --- | --- | --- | --- | --- | --- |
| O=C(CCCc1ccc2c(c1)C(=O)c1sccc1CO2)OCC(O)CO (racemic) [1-[(4,10-Dihydro-10-oxothieno[3,2-c][1]-benzoxepin-8-yl)-4-butyryl] glyceride] | 9.4 | – | – | – | – | – |
| CC(CCC(=O)O)c1ccc2c(c1)C(=O)c1sccc1CO2 (racemic) [(±)-4-(4,10-Dihydro-10-oxothieno[3,2-c][1]benzoxepin-8-yl)pentanoic acid] | – | 23 | – | – | – | inhibition at 20 mg/kg ([2]; pretreatment time 1 hr.): 25%; inhibition at 20 mg/kg ([2]; pretreatment time 4 hrs): 28% |
| CC1(C)OCC(COC(=O)CCCc2ccc3c(c2)C(=O)c2sccc2CO3)O1 (racemic) [(±)[2,2-Dimethyl-1,3-dioxolan-4-yl]methyl 4-[4,10-dihydro-10-oxothieno[3,2-c][1]benzoxepin-8-yl]butyrate] | 11.2 | 20 | 61 | 32 | 41 | ED50 [2, 4]: 14.5 mg/kg |
| CC(C)OC(=O)CCCc1ccc2c(c1)C(=O)c1sccc1CO2 [4-(4,10-Dihydro-10-oxothieno[3,2-c][1]benzoxepin-8-yl)-butyric acid isopropyl ester] | 8.5 | 31 | 71 | 57 | 26 | ED50 ([2]; pretreatment 2 hrs, estimated, read-out: Estimated ED50): 21.8 mg/kg |
| COC(=O)CCCc1ccc2c(c1)C(=O)c1sccc1CO2 [4-(4,10-Dihydro-10-oxothieno[3,2-c][1]benzoxepin-8-yl)-butyric acid methyl ester] | 10.8 | 24 | 54 | – | 16 | inhibition at 20 mg/kg ([2]; pretreatment time 8 hrs): 62%; ED50 [2, 4]: 10.3 mg/kg |
| O=C(O)CCCc1ccc2c(c1)C(=O)c1sccc1CO2 [4-(4,10-dihydro-10-oxothieno[3,2-c][1]benzoxepin-8-yl)-butyric acid] | – | – | – | – | – | inhibition at 25 mg/kg ([2]; pretreatment time 0.5 hr.): 49%; inhibition at 25 mg/kg ([2]; pretreatment time 1 hr): 52%; inhibition at 25 mg/kg ([2]; pretreatment time 2 hrs.): 79%; inhibition at 25 mg/kg ([2]; pretreatment time 3 hrs): 94%; inhibition at 25 mg/kg ([2]; pretreatment time 4 hrs): 95%; inhibition at 25 mg/kg ([2]; pretreatment time 6 hrs): 67%; inhibition at 25 mg/kg ([2]; pretreatment time 8 hrs): 47%; ED50 ([2]; 1 h, p.o., pretreatment 60 min, read-out: ED50): 77.9 mg/kg |
| CCOC(=O)CCCc1ccc2c(c1)C(=O)c1sccc1CO2 [Ethyl 4-[4,10-dihydro-10-oxothieno[3,2-c][1]benzoxepin-8-yl]butyrate] | 8.2 | 40 | 48 | 15 | 22 | – |
| CC1=C(CC(=O)O)c2cc(F)ccc2/C1=C\c1ccc([S+](C)[O-])cc1 (stereo not shown) [sulindac, reference compound] | – | – | – | – | – | ED50 ([1]; in a similar test, read-out: analgesic ED50): 6.2 mg/kg; ED50 ([2]; in a similar test, read-out: anti-inflammatory ED50): 10.7 mg/kg |
| CC(C)(C)OC(=O)CCCc1ccc2c(c1)C(=O)c1sccc1CO2 [t-Butyl 4-[4,10-dihydro-10-oxothieno-[3,2-c][1]benzoxepin-8-yl]butyrate] | – | 49 | – | – | – | inhibition at 20 mg/kg ([2]; pretreatment time 1 hr.): 42%; inhibition at 20 mg/kg ([2]; pretreatment time 4 hrs): 43% |
